We go through one compound from patent US10383909B2, “Use of a plant extract, pharmaceutical compositions and use thereof” (HEBRON FARMACEUTICA PESQUISA, DESENVOLVIMENTO E INOVACAO …, priority 2010, dated 2019).

Common to all, as to format: in vivo, human
A short description of experiment [1]: Patient questionnaire on gastritis symptoms before and after treatment. The note with it: gastritis patients, oral, four weeks (28 days). The text has this:
To evaluate the efficacy of hydroalcoholic extract of S. terebinthifolius in the form of a medication, 72 volunteer patients of both genders with diagnosed gastritis were selected. Anthropomorphic characteristics, such as age, weight and height were similar. The criteria for inclusion of patients in the sample were aged between 16 and 80 years (mean age was 40 years), with diagnosis of gastritis confirmed by endoscopy and pathological examination, and consent after clarification for study participation. We excluded patients who were treated with proton pump inhibitors, anti-inflammatory non-steroidal, H-2 receptor blockers and/or antacids during the month preceding the study.
The sample was randomly divided into two groups:
Group I—38 patients who used the medication based on Aroeira (Schinus terebinthifolius Raddi);
Group II—34 patients who used the drug Omeprazole (control group).
The protocol for administration of medications included: ingestion of one (1) the tablet based on Aroeira (about 233.60 mg) twice daily for four weeks (28 days), or the ingestion of 20 mg Omeprazole, two tablets twice daily for the same period.
For data analysis, we used the Epi Info program, v.3.5.1, and Microsoft Excel 2007. Since they are categorical variables, Odds Ratios were evaluated and significant results were verified through a crude chi-squared test or with a Yates correction, when applicable, and alternatively the Fisher Exact Test when indicated. A Z test was also used to compare proportions when the expected frequencies were greater than or equal to 5. Confidence intervals were calculated for 95% confidence, with significant differences smaller than 5%.
The results were obtained through a questionnaire completed by each patient, under the supervision of a specialist.

Experiment [2] in a line: Esophagogastroduodenoscopy (EGD) before and after four weeks of treatment: gastritis present or absent. The note with it: 2nd EGD after 28 days. The text has this:
To evaluate the efficacy of hydroalcoholic extract of S. terebinthifolius in the form of a medication, 72 volunteer patients of both genders with diagnosed gastritis were selected. Anthropomorphic characteristics, such as age, weight and height were similar. The criteria for inclusion of patients in the sample were aged between 16 and 80 years (mean age was 40 years), with diagnosis of gastritis confirmed by endoscopy and pathological examination, and consent after clarification for study participation. We excluded patients who were treated with proton pump inhibitors, anti-inflammatory non-steroidal, H-2 receptor blockers and/or antacids during the month preceding the study. Patients included in the sample performed two esophagogastroduodenoscopy tests (EGD) with biopsy and analysis for Helicobacter pylori. The first test was made before the treatment, and the second, after four weeks (28 days) on medication. The protocol for administration of medications included: ingestion of one (1) the tablet based on Aroeira (about 233.60 mg) twice daily for four weeks (28 days), or the ingestion of 20 mg Omeprazole, two tablets twice daily for the same period. Classification with gradations and intensity of gastritis was based on the Sydney System. For data analysis, we used the Epi Info program, v.3.5.1, and Microsoft Excel 2007. Since they are categorical variables, Odds Ratios were evaluated and significant results were verified through a crude chi-squared test or with a Yates correction, when applicable, and alternatively the Fisher Exact Test when indicated. A Z test was also used to compare proportions when the expected frequencies were greater than or equal to 5. Confidence intervals were calculated for 95% confidence, with significant differences smaller than 5%.

In another experiment the test system is Helicobacter pylori. Description: Analysis for Helicobacter pylori in biopsy after treatment. The note with it: after 28 days. Here is the method: (§1) Patients included in the sample performed two esophagogastroduodenoscopy tests (EGD) with biopsy and analysis for Helicobacter pylori. The first test was made before the treatment, and the second, after four weeks (28 days) on medication. The protocol for administration of medications included: ingestion of one (1) the tablet based on Aroeira (about 233.60 mg) twice daily for four weeks (28 days), or the ingestion of 20 mg Omeprazole, two tablets twice daily for the same period. For data analysis, we used the Epi Info program, v.3.5.1, and Microsoft Excel 2007. Since they are categorical variables, Odds Ratios were evaluated and significant results were verified through a crude chi-squared test or with a Yates correction, when applicable, and alternatively the Fisher Exact Test when indicated. A Z test was also used to compare proportions when the expected frequencies were greater than or equal to 5. Confidence intervals were calculated for 95% confidence, with significant differences smaller than 5%.

Experiment [3] is described as follows: Intensity of gastritis by histopathological examination before and after treatment (Sydney System). Here is the method:
as §1, with “period. Classification with gradations and intensity of gastritis was based on the Sydney System.” for “period.”

[4] abbreviates: intensity before treatment Mild/Discrete.
The mark [5] stands for this setting: intensity before treatment Moderate.

“And” between values parts separate entries of the source, which are not always exact repeats. Identical values can stand only once.

For `COc1ccc2[nH]c([S+]([O-])Cc3ncc(C)c(OC)c3C)nc2c1` (stereo not shown) [Omeprazole], in experiment [1], the “Percentage of improvement in symptoms after treatment: Abdominal discomfort relieved with meals” value was found to be 85.70%, the “Percentage of improvement in symptoms after treatment: Frequent epigastric pain” value amounted to 72.70%, the “Percentage of improvement in symptoms after treatment: Heartburn” value turned out to be 71.40% and the “Percentage of improvement in symptoms after treatment: Nausea” value stood at 72.20%. In experiment [2], the “Gastritis Absent after treatment, % (disappearance of endoscopic mucosal injury)” value amounted to 0%; the “Gastritis Absent after treatment, N° of patients” value worked out at 0; the “Gastritis Present after treatment, %” value is reported as 100%; the “Gastritis Present after treatment, N° of patients” value came to 34. In addition, in the experiment with Helicobacter pylori, the “H. pylori Absent after treatment, % (eradication rate)” value was 9.4% and 9.38%; the “H. pylori Absent after treatment, N° of patients” value was found to be 3; the “H. pylori Present after treatment, %” value is 90.63%; the “H. pylori Present after treatment, N° of patients” value was 29. Moreover, in experiment [3] (setting [4]), the “Intensity after treatment Mild/Discrete, %” value turned out to be 54.50%; the “Intensity after treatment Mild/Discrete, No. of patients” value stood at 12; the “Intensity after treatment Moderate, %” value is 45.5%; the “Intensity after treatment Moderate, N of patients” value came out at 10. Further, in experiment [3] (setting [5]), the “Intensity after treatment Mild/Discrete, % (improvement)” value is on record as 27.30%; the “Intensity after treatment Moderate, %” value turned out to be 72.70%; the “Intensity after treatment Moderate, N of patients” value is recorded as 8.
